Data as given in US9801850B2, “Antibacterial agent” (OSAKA UNIVERSITY, priority 2009, dated 2017).

What was measured:
[1] = system: E. coli MG1655; assay: Bactericidal effect, number of remaining viable cells; format: cell-based, Escherichia coli; settings: EGCG-C16 200 μg/ml, 0 to 6 hours, FIG. 2(B)
Description: (§1) The bactericidal effect of EGCG-C16 against MRSA ATCC43300, E. coli MG1655, and P. aeruginosa PAO1 was measured. Each strain of bacteria was cultured using an MH-broth as a medium.
(§2) The antibacterial agent solution and the bacterial culture solution were mixed together and the resultant mixture was cultured at 37° C. in the same manner as described in the above section (2), except that the final concentration of the EGCG-C16 in the mixture were set to: 6.25 μg/ml or 25 μg/ml for the MRSA; 200 μg/ml for the E. coli; and 50 μg/ml, 100 μg/ml, and 200 μg/ml for the P. aeruginosa. The number of viable cells in the mixture of the antibacterial agent solution and the bacterial culture solution was set to 1×10^5 CFU/ml. Then, after a lapse of a predetermined time from the start of the culture (0 hours, 2 hours, 4 hours, and 6 hours), the culture solution was collected and diluted with physiological saline so as to prepare 10-fold dilution series of solutions. 100 μl of each of the diluted bacterial culture solutions was placed on a petri dish. The diluted bacterial culture solution was hardened by mixing it with 10 ml of a Trypticase-soy Agar (BBL) that was kept at 50° C., and cultured at 37° C. overnight. Then, the number of the formed colonies (CFU/ml) was counted, and the number of remaining viable cells was measured. […]

[2] = system: MRSA ATCC43300; assay: as above; format: cell-based, Staphylococcus aureus; settings: EGCG-C16 25 μg/ml, 0 to 6 hours, FIG. 2(A)
Description: as §1, §2

[3] = system: P. aeruginosa PAO1; assay: as above; format: cell-based, Pseudomonas aeruginosa; settings: EGCG-C16 50, 100, 200 μg/ml, 0 to 6 hours, FIG. 2(C)
Description: as §1, §2

[4] = system: MRSA ATCC43300; assay: Membrane damaging properties, SYTOX Green fluorescence (Example 4); format: cell-based, Staphylococcus aureus; settings: for fluorescence intensity ratio of SYTOX Green (control PBS = 1): 37° C., 15 minutes, EGCG derivative 4-32, EGCG 8-128, NISIN 1-8 μg/ml, FIG. 3
Description: As an antibacterial agent, the EGCG-C16 prepared in Example 1 was used in Example 4; EGCG was used in Comparative Example 4; and membrane-damaging peptide NISIN (MP Biomedicals) was used in a reference example. Antibacterial agent solutions of EGCG-C16 and EGCG were prepared by dissolving them in DMSO so as to achieve top concentrations, respectively. An antibacterial agent solution of the other antibacterial agent was prepared by dissolving it in PBS and diluted with PBS as appropriate. The influence of DMSO used for dissolving the antibacterial agents also was considered.
MSSA ATCC25923 and MRSA ATCC43300 were subjected to shaking culture in MH-broths (Difco) until they reached a late stage in the exponential growth phase. The thus-obtained culture solutions were each centrifuged at 7000 rpm for 10 minutes, and bacterial cells that had settled were suspended in PBS. The suspension of the bacterial cells was added to wells of a 384 black plate, and each of the antibacterial agent solutions was further added thereto and mixed. The resultant mixture was incubated at 37° C. for 15 minutes. Subsequently, a dead cell-staining dye (trade name “SYTOX Green”, LONZA) was mixed in each well so that the concentration thereof became 10 μmol/l, and the resultant mixture was incubated at 37° C. for 10 minutes. The final concentrations of the respective antibacterial agents were as follows: 4, 8, 16, and 32 μg/ml for the EGCG derivative; 8, 16, 32, 64, and 128 μg/ml for EGCG; and 1, 2, 4, and 8 μg/ml for NISIN. […] On the other hand, as a control, the fluorescence intensity was measured in the same manner, except that PBS or 10% DMSO was added instead of the antibacterial agent solutions. Then, regarding each of the MSSA and MRSA, the ratio of the fluorescence intensity when each of the agents was added was calculated assuming that the fluorescence intensity obtained in the control (PBS) was 1.

EGCG-palmitate [EGCG-C16]
number of remaining viable cells [1]: bacteriostatic action | number of remaining viable cells [2]: not only inhibited the propagation but also reduced the number of viable cells | number of remaining viable cells [3]: bacteriostatic action | fluorescence intensity ratio of SYTOX Green (control PBS = 1) [4]: very high fluorescence intensity ratio | cell membrane-damaging action at high concentration (SYTOX Green) ([4]; EGCG-C16 at 64 μg/ml): tendency for this action of EGCG-C16 to become weak

O=C(O[C@@H]1Cc2c(O)cc(O)cc2O[C@@H]1c1cc(O)c(O)c(O)c1)c1cc(O)c(O)c(O)c1 [EGCG, Epigallocatechin gallate, reference compound]
fluorescence intensity ratio of SYTOX Green (control PBS = 1) [4]: smaller than 1
